Tests used:
Details in all cases: treatment time: 5 days
H1792 = tested on: H1792
Experimental: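 CCK-8 viability of KRAS G12C-mutant cancer cell lines transfected with control, YAP/TAZ or TEAD1-4 siRNAs and treated with KRAS G12C inhibitors for 5 days; IC50 fitted in Prism after normalising absorbance at 450 nm to vehicle control.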

SW1573 = test: relative viability (fraction of vehicle control); higher = more viable / less inhibited
Experimental: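 CCK-8 viability of SW1573 cells transfected with control, YAP/TAZ or TEAD1-4 siRNAs and treated with KRAS G12C inhibitors for 5 days. Values are normalised to vehicle control.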

H1373 = test: as above
Experimental: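 CCK-8 viability of H1373 cells with empty vector or constitutively active YAP S127A, treated with KRAS G12C inhibitors for 5 days, normalised to vehicle control.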

C=C(F)C(=O)N1CCN(c2nc(OC[C@@H]3CCCN3C)nc3c2CCN(c2cccc4cccc(Cl)c24)C3)C[C@@H]1CC#N [MRTX849]
Details	IC50 (cell viability, 5 days) [µM]	relative viability
H1373, log10 concentration (uM): 0, ectopic expression: YAP S127A	–	0.547
H1373, log10 concentration (uM): 0, ectopic expression: empty vector (YAP experiment)	–	0.301
H1373, log10 concentration (uM): 0.69897, ectopic expression: YAP S127A	–	0.0844
H1373, log10 concentration (uM): 0.69897, ectopic expression: empty vector (YAP experiment)	–	0.0167
H1373, log10 concentration (uM): -0.30103, ectopic expression: YAP S127A	–	0.529
H1373, log10 concentration (uM): -0.30103, ectopic expression: empty vector (YAP experiment)	–	0.307
H1373, log10 concentration (uM): -1, ectopic expression: YAP S127A	–	0.591
H1373, log10 concentration (uM): -1, ectopic expression: empty vector (YAP experiment)	–	0.436
H1373, log10 concentration (uM): -1.30103, ectopic expression: YAP S127A	–	0.578
H1373, log10 concentration (uM): -1.30103, ectopic expression: empty vector (YAP experiment)	–	0.45
H1373, log10 concentration (uM): -2, ectopic expression: YAP S127A	–	0.781
H1373, log10 concentration (uM): -2, ectopic expression: empty vector (YAP experiment)	–	0.863
H1373, log10 concentration (uM): -2.30103, ectopic expression: YAP S127A	–	0.818
H1373, log10 concentration (uM): -2.30103, ectopic expression: empty vector (YAP experiment)	–	0.904
H1373, log10 concentration (uM): -3, ectopic expression: YAP S127A	–	0.938
H1373, log10 concentration (uM): -3, ectopic expression: empty vector (YAP experiment)	–	1.07
H1792, siRNA knockdown (Con = control): Con	0.304	–
H1792, siRNA knockdown (Con = control): YAP_WWTR1_si1	0.055	–
H1792, siRNA knockdown (Con = control): YAP_WWTR1_si2	0.0456	–
SW1573, log10 concentration (uM): 0, siRNA knockdown: TEAD1-4 siRNA 1	–	0.154
SW1573, log10 concentration (uM): 0, siRNA knockdown: TEAD1-4 siRNA 2	–	0.307
SW1573, log10 concentration (uM): 0, siRNA knockdown: YAP/TAZ siRNA 1	–	0.0935
SW1573, log10 concentration (uM): 0, siRNA knockdown: YAP/TAZ siRNA 2	–	0.0411
SW1573, log10 concentration (uM): 0, siRNA knockdown: negative control siRNA	–	0.426
SW1573, log10 concentration (uM): 0.69897, siRNA knockdown: TEAD1-4 siRNA 1	–	0.0234
SW1573, log10 concentration (uM): 0.69897, siRNA knockdown: TEAD1-4 siRNA 2	–	0.127
SW1573, log10 concentration (uM): 0.69897, siRNA knockdown: YAP/TAZ siRNA 1	–	0.00636
SW1573, log10 concentration (uM): 0.69897, siRNA knockdown: YAP/TAZ siRNA 2	–	0.00791
SW1573, log10 concentration (uM): 0.69897, siRNA knockdown: negative control siRNA	–	0.00854
SW1573, log10 concentration (uM): -0.30103, siRNA knockdown: TEAD1-4 siRNA 1	–	0.173
SW1573, log10 concentration (uM): -0.30103, siRNA knockdown: TEAD1-4 siRNA 2	–	0.246
SW1573, log10 concentration (uM): -0.30103, siRNA knockdown: YAP/TAZ siRNA 1	–	0.141
SW1573, log10 concentration (uM): -0.30103, siRNA knockdown: YAP/TAZ siRNA 2	–	0.0897
SW1573, log10 concentration (uM): -0.30103, siRNA knockdown: negative control siRNA	–	0.66
SW1573, log10 concentration (uM): -1, siRNA knockdown: TEAD1-4 siRNA 1	–	0.244
SW1573, log10 concentration (uM): -1, siRNA knockdown: TEAD1-4 siRNA 2	–	0.263
SW1573, log10 concentration (uM): -1, siRNA knockdown: YAP/TAZ siRNA 1	–	0.154
SW1573, log10 concentration (uM): -1, siRNA knockdown: YAP/TAZ siRNA 2	–	0.0905
SW1573, log10 concentration (uM): -1, siRNA knockdown: negative control siRNA	–	0.726
SW1573, log10 concentration (uM): -1.30103, siRNA knockdown: TEAD1-4 siRNA 1	–	0.262
SW1573, log10 concentration (uM): -1.30103, siRNA knockdown: TEAD1-4 siRNA 2	–	0.289
SW1573, log10 concentration (uM): -1.30103, siRNA knockdown: YAP/TAZ siRNA 1	–	0.161
SW1573, log10 concentration (uM): -1.30103, siRNA knockdown: YAP/TAZ siRNA 2	–	0.108
SW1573, log10 concentration (uM): -1.30103, siRNA knockdown: negative control siRNA	–	0.751
SW1573, log10 concentration (uM): -2, siRNA knockdown: TEAD1-4 siRNA 1	–	0.463
SW1573, log10 concentration (uM): -2, siRNA knockdown: TEAD1-4 siRNA 2	–	0.452
SW1573, log10 concentration (uM): -2, siRNA knockdown: YAP/TAZ siRNA 1	–	0.23
SW1573, log10 concentration (uM): -2, siRNA knockdown: YAP/TAZ siRNA 2	–	0.181
SW1573, log10 concentration (uM): -2, siRNA knockdown: negative control siRNA	–	0.847
SW1573, log10 concentration (uM): -2.30103, siRNA knockdown: TEAD1-4 siRNA 1	–	0.552
SW1573, log10 concentration (uM): -2.30103, siRNA knockdown: TEAD1-4 siRNA 2	–	0.5
SW1573, log10 concentration (uM): -2.30103, siRNA knockdown: YAP/TAZ siRNA 1	–	0.345
SW1573, log10 concentration (uM): -2.30103, siRNA knockdown: YAP/TAZ siRNA 2	–	0.308
SW1573, log10 concentration (uM): -2.30103, siRNA knockdown: negative control siRNA	–	0.915
SW1573, log10 concentration (uM): -3, siRNA knockdown: TEAD1-4 siRNA 1	–	0.913
SW1573, log10 concentration (uM): -3, siRNA knockdown: TEAD1-4 siRNA 2	–	0.702
SW1573, log10 concentration (uM): -3, siRNA knockdown: YAP/TAZ siRNA 1	–	0.582
SW1573, log10 concentration (uM): -3, siRNA knockdown: YAP/TAZ siRNA 2	–	0.531
SW1573, log10 concentration (uM): -3, siRNA knockdown: negative control siRNA	–	0.978
SW1573, log10 concentration (uM): -4, siRNA knockdown: TEAD1-4 siRNA 1	–	0.988
SW1573, log10 concentration (uM): -4, siRNA knockdown: TEAD1-4 siRNA 2	–	0.877
SW1573, log10 concentration (uM): -4, siRNA knockdown: YAP/TAZ siRNA 1	–	0.915
SW1573, log10 concentration (uM): -4, siRNA knockdown: YAP/TAZ siRNA 2	–	0.845
SW1573, log10 concentration (uM): -4, siRNA knockdown: negative control siRNA	–	0.997

Reference: the supplement of paper PMC11665569
